In assay [1] the target is T1, ERβ (Homo sapiens, UniProt Q92731). The conditions noted are these: in the presence of ERβ.
For a further assay, the system named is TNF-RE tkLuc. The assay can be described thus: Activation of the TNF-RE tkLuc reporter (TNF-α, antiestrogens). The class given is cell-based. The conditions noted are these: for activation of TNF-RE tkLuc by antiestrogens: in contrast to E2.
Assay [2] relates to MCF-7 breast cancer cells. In words: MCF-7 kidney capsule xenografts in nude mice. On the set-up: dose or concentration left out as unconfirmed. To be noted: 28 days.
Description: MCF-7 xenografts were introduced into nude mouse kidneys. Mice were randomized to three treatment groups. […] Each treatment group was treated for 28 days, after which mice were euthanized and the kidneys containing the xenografts were excised, photographed and weighed.
In assay [3] the target is T2, estrogen receptor beta (ERβ) (Homo sapiens, UniProt Q92731).
T2 construct: expressed in transfected cells
The assay can be described thus: ERE-tkLuc luciferase expression with nyasol in cells coexpressing ERβ (FIG. 3, FIG. 5). The class given is cell-based. The source says: FIG. 3 is a graph comparing luciferase expression in cells transformed with DNA encoding estrogen response element alpha linked to the minimal thymidine kinase (tk) promoter and a sequence encoding luciferase (Luc) in response to varying concentrations of nyasol in the presence of either estrogen receptor alpha (ERα) or estrogen receptor beta (ERβ).

A further assay deals with T3, ERα (Homo sapiens, UniProt P03372).
T3 sequence (P03372 1-595): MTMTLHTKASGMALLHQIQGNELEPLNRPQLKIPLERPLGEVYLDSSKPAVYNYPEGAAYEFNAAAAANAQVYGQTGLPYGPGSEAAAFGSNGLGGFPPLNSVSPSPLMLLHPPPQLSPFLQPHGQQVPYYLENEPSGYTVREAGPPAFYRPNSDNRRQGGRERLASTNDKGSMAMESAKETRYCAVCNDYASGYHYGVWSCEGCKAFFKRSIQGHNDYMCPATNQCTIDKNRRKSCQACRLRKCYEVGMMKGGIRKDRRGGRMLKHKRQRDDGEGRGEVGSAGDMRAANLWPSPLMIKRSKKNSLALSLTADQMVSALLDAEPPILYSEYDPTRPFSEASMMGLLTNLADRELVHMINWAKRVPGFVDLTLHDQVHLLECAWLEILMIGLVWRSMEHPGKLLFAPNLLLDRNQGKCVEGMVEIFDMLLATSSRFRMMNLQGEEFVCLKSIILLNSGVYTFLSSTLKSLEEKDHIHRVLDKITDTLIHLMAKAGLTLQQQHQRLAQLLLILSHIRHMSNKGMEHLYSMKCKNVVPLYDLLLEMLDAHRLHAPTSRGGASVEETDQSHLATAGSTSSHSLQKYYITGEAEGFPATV
The assay can be described thus: Concentration binding curve for Nyasol, ERα (FIG. 6).

Assay [4] concerns the target T1, ERβ. In words: Concentration binding curve for Nyasol, ERβ (FIG. 6).
Another assay concerns TNFα-RE. The assay can be described thus: Repression of TNFα-RE linked expression of Luc by nyasol (FIG. 4). The conditions noted are these: in vitro.
A further assay relates to breast cancer. The conditions noted are these: among the 5129 women in the raloxifene treatment group; median follow-up 40 months; cited from earlier work.
For assay [5], the system named is primary invasive breast cancer. To be noted: women at high risk for breast cancer; cited from earlier work.
The test system of assay [6] is estrogen receptor-positive breast cancer. To be noted: cited from earlier work.
[7] abbreviates: five years of tamoxifen therapy.

“Also recorded” adds a separate entry of the source.

The values that follow come from US20090312274A1, “Nyasol and Analogs Thereof for the Treatment of Estrogen Receptor Beta-Mediated Diseases” (Bionovo, Inc., priority 2008, published 2009).

T2 sequence (Q92731 whole entry): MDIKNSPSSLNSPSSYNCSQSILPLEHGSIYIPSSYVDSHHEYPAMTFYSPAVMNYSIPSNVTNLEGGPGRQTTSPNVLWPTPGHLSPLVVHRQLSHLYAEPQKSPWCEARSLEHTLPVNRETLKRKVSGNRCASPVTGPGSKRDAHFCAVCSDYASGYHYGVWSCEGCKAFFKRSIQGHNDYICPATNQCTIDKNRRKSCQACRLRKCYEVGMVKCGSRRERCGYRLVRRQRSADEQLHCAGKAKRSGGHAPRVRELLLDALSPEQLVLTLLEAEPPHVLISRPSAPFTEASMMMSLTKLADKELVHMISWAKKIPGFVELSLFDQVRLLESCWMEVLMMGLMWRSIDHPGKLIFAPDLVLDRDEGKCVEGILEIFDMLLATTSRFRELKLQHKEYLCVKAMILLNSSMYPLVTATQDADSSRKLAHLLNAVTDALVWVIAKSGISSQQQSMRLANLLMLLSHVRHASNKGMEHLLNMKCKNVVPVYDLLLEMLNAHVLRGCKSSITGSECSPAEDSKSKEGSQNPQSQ
T1 sequence (Q92731 whole entry): as above

Consider `C[C@]12CC[C@@H]3c4ccc(O)cc4CC[C@H]3[C@@H]1CC[C@@H]2O` [E2, estradiol], for which, at ERβ [1], the “repression of TNF-α activation of TNF-RE tkLuc” value is given as 60-80%.

As to `C[C@]12CC[C@@H]3c4ccc(O)cc4C[C@@H](CCCCCCCCC[S+]([O-])CCCC(F)(F)C(F)(F)F)[C@H]3[C@@H]1CC[C@@H]2O` (some centres unmarked) [ICI 182780], the “activation of TNF-RE tkLuc by antiestrogens” value (from here on “activation … by antiestrogens”) with TNF-RE tkLuc was 2 fold.

As to `C=CC(/C=C\c1ccc(O)cc1)c1ccc(O)cc1` (centres unmarked) [Nyasol, nyasol], the “growth of MCF-7 kidney capsule xenografts compared to control” value in assay [2] is “inhibits the growth”. For the same molecule, the “ERβ-selective activation of the ERE (luciferase expression, ERβ versus ERα)” value in assay [3] (FIG. 3, varying concentrations of nyasol, ERE-tkLuc) was “selectively activates the ERE; also recorded: selective estrogen receptor beta agonist”. In addition, the “expression of luciferase in ERE-tkLuc-transformed cells coexpressing ERβ” value in assay [3] (FIG. 5, nyasol, control EtOH) is listed as “activated the ERE”. Besides, at ERα, the “binding of ERα with nyasol” value is recorded as “bind”. Besides, the “binding of ERβ with nyasol” value on ERβ [4] is on record as “bind”. In the assay with TNFα-RE, the “repression of TNFα-RE linked expression of Luc” value is recorded as “selectively represses”.

Turning to `O=C(c1ccc(OCCN2CCCCC2)cc1)c1c(-c2ccc(O)cc2)sc2cc(O)ccc12` [raloxifene], the “activation … by antiestrogens” value in the assay with TNF-RE tkLuc was found to be 2 fold. The “effect of addition to nyasol on activation of the ERE” value in assay [3] (FIG. 5, added together with Nyasol, ERβ) is “reduced this activation”. Besides, the “cases of breast cancer” value in the assay with breast cancer is listed as 13 cases.

As for `CC/C(=C(\c1ccccc1)c1ccc(OCCN(C)C)cc1)c1ccccc1` [tamoxifen], the “activation … by antiestrogens” value with TNF-RE tkLuc is 2 fold. Besides, in assay [5], the “reduction of the risk of primary invasive breast cancer” value is 49%. Besides, in assay [6] (setting [7]), the “reduction of mortality from breast cancer” value is 22% and the “reduction of the risk of recurrences” value is on record as 42%. For the same molecule, the “ER positive breast tumors that respond” value in assay [6] (fraction of tumors) is recorded as “⅔”.

As to TNF-α, the “activation of 3 copies of the TNF-RE (−125 to −82) upstream of the tk promoter” value in the assay with TNF-RE tkLuc (TNF-α as stimulus) is 5-10 fold.
